Source: US11814379B2, “Cyano quinoline amide compounds as HER2 inhibitors and methods of use” (DANA-FARBER CANCER INSTITUTE, INC., priority 2018, dated 2023)

Columns and labels:
Ba/F3 cells HER2 InsVC = Ba/F3 cells HER2 InsVC (Homo sapiens, UniProt P04626, DELINS776-776VC, cells depend on it); assay: Antiproliferative activities (MTS assay), Ba/F3 cells HER2 InsVC; assay type: cell-based; conditions: 72 hours
Procedure: (§1) Cell growth and growth inhibition were evaluated by […] (MTS) assay. A total of 3,000-4,000 cells were plated per well in 96-well plates and treated with each drug (at a dose range from 1 nM to 10 μM) for 3 days. Each experimental point was conducted in six replicates and all tests were repeated more than three times. IC50 data was obtained from a nonlinear regression model with sigmoidal dose response using GraphPad Prism (GraphPad Software, Inc.).
(§2) All ERBB insertion mutations were generated by using the Quikchange II XL Site-Directed Mutagenesis Kit (Agilent Tech) according to the manufacturer's protocol. The insertion mutations and wildtype form of human EGFR and HER2 were transduced into Ba/F3 cells by retroviral infection followed by treatment of puromycin and withdrawal of interleukin-3 for selection. […] Wild-type EGFR Ba/F3 cells were cultured in the same media supplemented with EGF (10 ng/ml).
(§3) Cell growth inhibition was assessed by MTS assay for Ba/F3 and H1781 cells. A total of 3,000-4,000 cells were seeded for per well in 96-well plates, and were exposed to representative compounds of the application (1 nM to 10 μM) for 72 hours. All experimental points included 6 wells. […] The growth curves were fitted using a nonlinear regression model with sigmoidal dose response.
(§4) Activities of representative compounds of the present application in inhibiting HER2 were tested by MTS assay (for Ba/F3 cells and H1781 cells). For each assay, a total of 3,000-4,000 cells were seeded per well in 96-well plates and were exposed to indicated compounds with a concentration of […] for 72 hours.

WT HER2 = WT HER2 (Homo sapiens, UniProt P04626); assay: Biochemical activities, WT HER2
[1] = test system: Calu-3 (Her2 amplification); assay: Antiproliferative activities in lung cancer cells, Calu-3; assay type: cell-based; conditions: Homo sapiens
Procedure: as §1

H1781 (HER2 InsVC) = assay: Antiproliferative activities in lung cancer cells, H1781; assay type: cell-based; conditions: NCI-H1781
Procedure: as §1
All ERBB insertion mutations were generated by using the Quikchange II XL Site-Directed Mutagenesis Kit (Agilent Tech) according to the manufacturer's protocol. The insertion mutations and wildtype form of human EGFR and HER2 were transduced into Ba/F3 cells by retroviral infection followed by treatment of puromycin and withdrawal of interleukin-3 for selection. Transformed Ba/F3 cells and the NSCLC cell line H1781 (with HER2 insertion VC) were cultured in Roswell Park Memorial Institute-1640 medium (Gibco) with 10% fetal bovine serum and 1% penicillin/streptomycin (Gibco). Wild-type EGFR Ba/F3 cells were cultured in the same media supplemented with EGF (10 ng/ml).
as §3, §4

Ba/F3 cells HER2 InsYVMA = Ba/F3 cells HER2 InsYVMA (Homo sapiens, UniProt P04626, DUP772-775, cells depend on it); assay: Antiproliferative activities (MTS assay), Ba/F3 cells HER2 InsYVMA; assay type: cell-based; conditions: 72 hours
Procedure: as §1, §2, §3, §4

Ba/F3 cells WT HER2 [2] = assay: Antiproliferative activities (MTS assay), Ba/F3 cells WT HER2; assay type: cell-based, human; conditions: for EGFR EC50/HER2 EC50: Ba/F3 cells, ratio WT EGFR to WT HER2
Procedure: as §1, §2, §3, §4

Ba/F3 cells WT HER2 [3] = molecular target: T1, Ba/F3 cells WT HER2 (Homo sapiens, UniProt P04626); assay: as above; assay type: cell-based; conditions: Ba/F3 cells, 72 hours, MTS
T1 construct: Antiproliferative Activities (Ba/F3 cells) WT HER2; other: Ba/F3 cells, 72 hours, MTS
Procedure: as §1, §2, §3, §4

WT EGFR = WT EGFR (Homo sapiens, UniProt P00533); assay: Biochemical activities, WT EGFR
Sequence of WT EGFR (P00533 25-1210): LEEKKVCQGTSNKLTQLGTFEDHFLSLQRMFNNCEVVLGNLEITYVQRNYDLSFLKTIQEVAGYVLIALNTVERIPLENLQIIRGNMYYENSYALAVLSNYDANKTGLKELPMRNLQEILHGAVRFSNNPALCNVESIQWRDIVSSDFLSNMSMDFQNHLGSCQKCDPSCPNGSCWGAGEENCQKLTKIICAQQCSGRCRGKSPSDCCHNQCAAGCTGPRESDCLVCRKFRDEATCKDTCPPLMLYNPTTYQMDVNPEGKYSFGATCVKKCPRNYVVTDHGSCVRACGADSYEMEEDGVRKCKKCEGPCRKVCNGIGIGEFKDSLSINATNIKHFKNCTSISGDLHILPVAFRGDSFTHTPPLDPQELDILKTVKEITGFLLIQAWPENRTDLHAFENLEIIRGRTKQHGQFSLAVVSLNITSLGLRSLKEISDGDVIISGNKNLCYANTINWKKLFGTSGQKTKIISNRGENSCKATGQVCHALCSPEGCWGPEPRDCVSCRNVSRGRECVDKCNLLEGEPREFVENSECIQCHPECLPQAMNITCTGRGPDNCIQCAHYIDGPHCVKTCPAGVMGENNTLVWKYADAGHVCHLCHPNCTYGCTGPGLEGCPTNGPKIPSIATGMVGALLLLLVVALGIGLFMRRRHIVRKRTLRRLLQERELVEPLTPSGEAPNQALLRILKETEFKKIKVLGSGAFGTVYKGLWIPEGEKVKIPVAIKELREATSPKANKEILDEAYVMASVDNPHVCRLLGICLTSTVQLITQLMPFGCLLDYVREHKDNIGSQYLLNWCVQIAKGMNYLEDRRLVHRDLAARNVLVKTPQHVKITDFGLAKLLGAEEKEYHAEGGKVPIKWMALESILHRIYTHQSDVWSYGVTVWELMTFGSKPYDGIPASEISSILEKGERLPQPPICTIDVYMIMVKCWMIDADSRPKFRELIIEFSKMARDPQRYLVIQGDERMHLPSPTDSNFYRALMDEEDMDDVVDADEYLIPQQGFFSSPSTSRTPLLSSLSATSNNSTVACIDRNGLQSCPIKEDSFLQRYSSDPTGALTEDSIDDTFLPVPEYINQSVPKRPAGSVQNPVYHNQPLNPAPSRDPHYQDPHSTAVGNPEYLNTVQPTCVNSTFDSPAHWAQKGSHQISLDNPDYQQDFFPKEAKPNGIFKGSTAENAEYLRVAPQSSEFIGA

Ba/F3 cells HER2 InsWLV = Ba/F3 cells HER2 InsWLV (Homo sapiens, UniProt P04626, DELINS774-774WLV, cells depend on it); assay: Antiproliferative activities (MTS assay), Ba/F3 cells HER2 InsWLV; assay type: cell-based; conditions: 72 hours
Procedure: as §1, §2, §3, §4

[4] = test system: DFCI429 (Her2 amplification); assay: Antiproliferative activities in lung cancer cells, DFCI429; assay type: cell-based
Procedure: as §1

Ba/F3 cells WT EGFR = Ba/F3 cells WT EGFR (Homo sapiens, UniProt P00533); assay: Antiproliferative activities (MTS assay), Ba/F3 cells WT EGFR; assay type: cell-based; conditions: 72 hours
Sequence of Ba/F3 cells WT EGFR (P00533 whole entry, change not shown): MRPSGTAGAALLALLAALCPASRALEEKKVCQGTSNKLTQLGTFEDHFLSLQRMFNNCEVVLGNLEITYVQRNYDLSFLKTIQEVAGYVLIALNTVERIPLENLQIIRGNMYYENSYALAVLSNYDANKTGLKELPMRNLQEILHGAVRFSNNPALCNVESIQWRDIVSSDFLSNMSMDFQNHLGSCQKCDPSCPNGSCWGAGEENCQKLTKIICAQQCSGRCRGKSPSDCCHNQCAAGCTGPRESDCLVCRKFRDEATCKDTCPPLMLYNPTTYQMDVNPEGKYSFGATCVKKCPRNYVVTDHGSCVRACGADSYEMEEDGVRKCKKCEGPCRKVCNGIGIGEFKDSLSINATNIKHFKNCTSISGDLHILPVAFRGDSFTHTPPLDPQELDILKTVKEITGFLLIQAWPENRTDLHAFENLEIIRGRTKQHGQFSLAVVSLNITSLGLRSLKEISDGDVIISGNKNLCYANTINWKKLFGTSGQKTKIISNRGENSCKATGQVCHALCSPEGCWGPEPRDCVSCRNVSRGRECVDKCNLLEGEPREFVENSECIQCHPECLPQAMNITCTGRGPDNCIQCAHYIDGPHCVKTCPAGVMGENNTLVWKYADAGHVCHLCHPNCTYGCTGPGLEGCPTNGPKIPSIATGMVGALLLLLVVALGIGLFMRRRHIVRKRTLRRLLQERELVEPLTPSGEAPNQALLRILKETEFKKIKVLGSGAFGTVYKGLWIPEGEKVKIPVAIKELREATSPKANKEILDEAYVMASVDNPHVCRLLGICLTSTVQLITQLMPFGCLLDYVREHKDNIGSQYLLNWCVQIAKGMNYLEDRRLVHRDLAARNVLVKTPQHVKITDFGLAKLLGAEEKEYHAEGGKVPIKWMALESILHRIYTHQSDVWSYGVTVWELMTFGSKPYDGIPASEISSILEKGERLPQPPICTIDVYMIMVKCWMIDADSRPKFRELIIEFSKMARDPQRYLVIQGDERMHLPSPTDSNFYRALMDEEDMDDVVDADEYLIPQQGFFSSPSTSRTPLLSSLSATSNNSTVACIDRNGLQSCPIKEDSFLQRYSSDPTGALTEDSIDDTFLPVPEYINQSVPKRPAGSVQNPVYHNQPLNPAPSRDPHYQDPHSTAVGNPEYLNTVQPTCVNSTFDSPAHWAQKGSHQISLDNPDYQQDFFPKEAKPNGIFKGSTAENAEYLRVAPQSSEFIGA
Procedure: as §1, §2, §3, §4

[5] = test system: H1819 (Her2 amplification); assay: Antiproliferative activities in lung cancer cells, H1819; assay type: cell-based; conditions: NCI-H1819
Procedure: as §1

Ba/F3 cells HER2 InsGSP = Ba/F3 cells HER2 InsGSP (Homo sapiens, UniProt P04626, DUP778-780, cells depend on it); assay: Antiproliferative activities (MTS assay), Ba/F3 cells HER2 InsGSP; assay type: cell-based; conditions: 72 hours
Procedure: as §1, §2, §3, §4

HER2 mutations = conditions: Phase I and II clinical data; cited from earlier work
[6] = molecular target: T2, HER2 insYVMA (A775_G776insYVMA) (Homo sapiens, UniProt P04626, INS775YVMA); conditions: afatinib as a single agent; dacomitinib phase II trial, 13 patients; cited from earlier work
T2 construct: no response in all 13 patients with HER2 insYVMA (A775_G776insYVMA); host or cells: patients' tumours

| SMILES | EC50 (Ba/F3 cells HER2 InsVC) | EC50 (WT HER2) | EC50 [1] | EC50 (H1781 (HER2 InsVC)) | EC50 (Ba/F3 cells HER2 InsYVMA) | EGFR EC50/HER2 EC50 (Ba/F3 cells WT HER2 [2]) | inhibition of HER2 and its mutant over EGFR (Ba/F3 cells WT HER2 [2]; FIG. 4 bar graph) | EC50 (Ba/F3 cells WT HER2 [3]) | EC50 (WT EGFR) | EC50 (Ba/F3 cells HER2 InsWLV) | EC50 [4] | EC50 (Ba/F3 cells WT EGFR) | EC50 [5] | EC50 (Ba/F3 cells HER2 InsGSP) | response to treatment of patients harboring HER2 mutations (HER2 mutations) | response of patients with HER2 insYVMA [6] |
| --- | --- | --- | --- | --- | --- | --- | --- | --- | --- | --- | --- | --- | --- | --- | --- | --- |
| CCOc1cc2ncc(C#N)c(Nc3ccc(Oc4ccn5ncnc5c4)c(C)c3)c2cc1NC(=O)/C=C/CN(C)C [Compound 1, (E)-N-(4-((4-([1,2,4]triazolo[1,5-a]pyridin-7-yloxy)-3-methylphenyl)amino)-3-cyano-7-ethoxyquinolin-6-yl)-4-(dimethylamino)but-2-enamide] | < 100 nM | < 100 nM | < 100 nM | 100 to 250 nM | < 100 nM | 32 | selective inhibition | < 100 nM | 100 to 250 nM | < 100 nM | 100 to 250 nM | 250 to 500 nM | < 100 nM | < 100 nM |  |  |
| Cc1cc(Nc2ncnc3ccc(NC4=NC(C)(C)CO4)cc23)ccc1Oc1ccn2ncnc2c1 [Irbinitinib, reference compound] | > 500 nM | < 100 nM | ≥ 500 nM | ≥ 500 nM | 100 to 250 nM | 18 |  | 250 to 500 nM | 250 to 500 nM | 250 to 500 nM | ≥ 500 nM | > 500 nM | 100 to 250 nM | 100 to 250 nM |  |  |
| CCOc1cc2ncc(C#N)c(Nc3ccc(Oc4ccc5ccn(C)c5c4)c(C)c3)c2cc1NC(=O)/C=C/CN(C)C [Compound 6] | < 100 nM |  |  |  | < 100 nM | 178 |  | < 100 nM |  | 100 to 250 nM |  | > 500 nM |  | < 100 nM |  |  |
| CCOc1cc2ncc(C#N)c(Nc3ccc(Oc4ccn5ncnc5c4)c(Cl)c3)c2cc1NC(=O)/C=C/CN(C)C [Compound 3] | < 100 nM |  |  |  | < 100 nM | 87 |  | < 100 nM |  | < 100 nM |  | 250 to 500 nM |  | < 100 nM |  |  |
| CCOc1cc2ncc(C#N)c(Nc3ccc(Oc4ccn5ncnc5c4)c(F)c3)c2cc1NC(=O)/C=C/CN(C)C [Compound 2] | 250 to 500 nM | < 100 nM |  |  | < 100 nM | 222 |  | < 100 nM | 100 to 250 nM | 100 to 250 nM |  | > 500 nM |  | < 100 nM |  |  |
| CCOc1cc2ncc(C#N)c(Nc3ccc(Oc4ccn5ccnc5c4)c(C)c3)c2cc1NC(=O)/C=C/CN(C)C [Compound 4] | < 100 nM |  |  |  | < 100 nM | 49 |  | < 100 nM |  | 100 to 250 nM |  | > 500 nM |  | < 100 nM |  |  |
| CN(C)C/C=C/C(=O)Nc1cc2c(Nc3ccc(F)c(Cl)c3)ncnc2cc1O[C@H]1CCOC1 [Afatinib] |  |  | 100 to 250 nM | 100 to 250 nM |  |  |  |  |  |  | 100 to 250 nM |  | < 100 nM |  | partially responded | durable responses |
| COc1cc2ncnc(Nc3ccc(F)c(Cl)c3)c2cc1NC(=O)/C=C/CN1CCCCC1 [dacomitinib] |  |  |  |  |  |  |  |  |  |  |  |  |  |  | partially responded | no response |
| CCOc1cc2ncc(C#N)c(Nc3ccc(Oc4ccn5nccc5c4)c(C)c3)c2cc1NC(=O)/C=C/CN(C)C [Compound 5] | < 100 nM |  |  |  | < 100 nM | 6 |  | < 100 nM |  | 100 to 250 nM |  | 100 to 250 nM |  | < 100 nM |  |  |
